This is an account of results in patent US8389558B2, “Bendamustine amphiphilic anionic compositions” (Supratek Pharma Inc., priority 2009, dated 2013).

Counter-ions that a name gives are not always drawn.

Data set [1] can be described thus: Bendamustine chemical stability in formulations with amphiphilic anionic agents and phosphate buffer (HPLC, first order kinetics). In kind it is physicochemical. To be noted: 0.6 mg/mL bendamustine, 1% (w/v) aqueous amphiphilic anionic agent, 6 mM phosphate buffer pH 7.2, 25° C.; read-out: decomposition half time (T½) of bendamustine. The procedure: Formulations were prepared by dissolving bendamustine hydrochloride in pre-equilibrated 1% (w/v) aqueous solution of amphiphilic anionic agent containing 6 mM phosphate buffer, pH 7.2. The final concentration of bendamustine was 0.6 mg/mL. The formulations were incubated at 25° C., and were periodically analyzed by HPLC as follows. 10 μL samples were separated using Waters SymmetryShield RP-18 3.5 μm column (4.6×50 mm) at the flow of 1.5 mL/min of acetonitrile-water gradient containing 0.1% TFA. Peak detection has been performed with means of UV absorption detection at 260 nm. The area of the peak of Bendamustine was used to evaluate the rate of drug decomposition in the first order kinetics model.

The conditions of data set [2]: 23° C.; cited from earlier work.

On to `Cn1c(CCCC(=O)O)nc2cc(N(CCCl)CCCl)ccc21` [Control (phosphate buffer), bendamustine hydrochloride], for which, in data set [1], the half-life at 0.6 mg/mL stood at 44 min.
As for `Cn1c(CCCC(=O)O)nc2cc(N(CCCl)CCCl)ccc21` [bendamustine hydrochloride], the “time for which stable in saline solution” value in data set [2] is 9 h.
